These results are taken from patent US20070172933A1, “Thermally stable amidases” (priority 2003, published 2007).

Where two headings read alike, the source gives them in different places.

Series [1] relates to amidase. The experiment in a line: Substrate specificity of the isolated amidase (hydrolysis assay). The format is biochemical, Pseudonocardia thermophila. The procedure: (§1) To carry out the hydrolysis assay, where not mentioned otherwise, use was made of a 5 mM benzamide solution in 500 μl of a 60 mM K-Na phosphate buffer, pH 7.2. The enzymatic reaction proceeded for one hour at 70° C. with addition of 5 μg of the enzyme. The reaction was stopped by cooling the reaction solution on ice. […] One unit (U) of amidase activity is defined as the amount of enzyme which catalyzes the formation of 1 μmol of benzoic acid per minute.
The substrate specificity of the amidase was tested at three different temperatures taking into account the substrate used in each case. For hydrolysis of amino acid amides, the reaction mixture was reacted for 3 h at 30° C., in the case of the aliphatic and cyclic amides 1 h at 50° C., and for aromatic amide substrates 1 h at 70° C. The enzymatic activity was then determined as described above. The control used was each batch without enzyme.

Series [2] relates to amidase. The experiment in a line: Enantioselectivity of the isolated amidase, chiral HPLC. The format is biochemical, Pseudonocardia thermophila. The note with it: 70° C. The procedure:
For this, 10 μg of the purified amidase were incubated with a 5 mM racemic 2-phenylpropionamide solution for 3 h at 70° C., the end volume of the reaction batch being 500 μl. At 30-minute intervals, samples were taken from the reaction batch and analyzed by an HPLC measurement.
The product determination and quantification of the R-and S-stereoisomers of the 2-phenylpropionamide were determined by injecting defined amounts of the corresponding pure substances as standard. The enantiomeric excess (ee) was calculated on the basis of the peak area ratio obtained by the chirar HPLC measurement (ee^p=(S−R)/(S+R); ee^p (%)=(S−R)/(S+R) ×100; where p=product).
For the HPLC measurements, a chiral Chirobiotic T column (Astec, Whippany, USA) was used. The solvent used was ethanol and 20 mM potassium phosphate buffer, pH 7.2, having a volumetric ratio of 20:80. The elution was performed at room temperature using a flow rate of 0.8 ml min^−1. Detection was performed at a wavelength of 210 nm. The amfmonia concentration was studied using the phenol hypochloride method using the ammonia kit Spectroquant 114752 (Merck, Germany), the amount of ammonia released being determined spectrometrically using ammonium chloride as standard.

For series [3], the system named is amidase. The experiment in a line: Effect of metals and inhibitors (reagents and ions) on amidase activity, benzamide hydrolysis. It counts as biochemical, Pseudonocardia thermophila. To be noted: for Amidase activity in %: reagent 1 mM, preincubated 1 h at 22° C., benzamide, 1 h at 70° C. The procedure:
as §1
To study the effect of certain reagents and ions on amidase activity, a solution containing 5 μg of amidase and the reagent or ion was preincubated for 1 h at 22° C. in 50 mM phosphate buffer. A 5 mM solution of benzamide in 50 mM phosphate buffer was then added until the end concentration of the reagent in the reaction batch was 1 mM. The reaction was performed for 1 h at 70° C. The catalytic activity was determined as described above.

The format of series [4] is physicochemical, Pseudonocardia thermophila. The note with it: pH 7.2. The procedure:
In addition, the temperature stability of the enzymes was studied between 50° C. and 80° C. over a relatively long period. […] (middle curve, FIG. 5).

The nature of series [5]: Hydrolysis assay, specific activity of the purified amidase. The format is biochemical, Pseudonocardia thermophila. To be noted: benzamide as substrate, after purification. The procedure: To carry out the hydrolysis assay, where not mentioned otherwise, use was made of a 5 mM benzamide solution in 500 μl of a 60 mM K-Na phosphate buffer, pH 7.2. The enzymatic reaction proceeded for one hour at 70° C. with addition of 5 μg of the enzyme. The reaction was stopped by cooling the reaction solution on ice. The concentration of the products obtained enzymatically (benzoic acid and ammonia) was determined by means of HPLC and spectrometrically, using the ammonia kit Spectroquant 114752 (Merck, Germany). One unit (U) of amidase activity is defined as the amount of enzyme which catalyzes the formation of 1 μmol of benzoic acid per minute.

Series [6] can be described thus: Determination of the isoelectric point by isoelectric focusing. It counts as physicochemical, Pseudonocardia thermophila. The procedure: The isoelectric point was determined by means of isoelectric focusing using a Novex polyacrylamide gel (pH .3-10) and using a Novex electrophoresis chamber in accordance with the manufacturer's instructions (Novex, Invitrogen, Netherlands). The isoelectric point of the purified amidase was determined at pH 4.2.

The mark [7] stands for this setting: Aliphatic amides, 1 h at 50° C.
The mark [8] stands for this setting: Amino acid amides, 3 h at 30° C.
The mark [9] stands for this setting: Heterocycles, temperature for this group not stated clearly.

In turn, `CC(O)C(N)=O` (racemic) [DL-lactamide] showed a Specific activity in series [1] (setting [7]) of 18.9 µmol/min/mg.

Regarding `NC(=O)c1ccccc1N` [2-aminobenzamide], the Specific activity in series [1] (Aromatic amides, 1 h at 70° C.) was determined as 3.4 µmol/min/mg.

In series [1] (setting [8]), `CSCCC(O)C(N)=O` (stereo not drawn) [2-hydroxy-4-(methylthio)butyramide] registered a Specific activity of 5.7 µmol/min/mg.

In series [2] (5 mM racemic substrate, after 60 minutes), `CC(C(N)=O)c1ccccc1` (stereo not drawn) [2-phenylpropionamide] displayed a conversion of 50%. Besides, the “enantiomeric excess ee^p” value in series [2] (5 mM racemic substrate, after 60 minutes, S-enantiomer product) is given as “greater than 95%”. Further, in series [2] (racemic substrate), the “enantioselectivity of the purified amidase for the substrate” value is “highly S-selective”. The same molecule came in with a Specific activity in series [1] (Aromatic amides, 1 h at 70° C.) of 15.8 µmol/min/mg.

Regarding `NC(=O)Cc1c[nH]c2ccccc12` [3-indolylacetamide], in series [1] (Aromatic amides, 1 h at 70° C.), the Specific activity was 7.56 µmol/min/mg.

As for `NC(=O)c1ccc(N)cc1` [4-aminobenzamide], in series [1] (Aromatic amides, 1 h at 70° C.), the Specific activity is 6.5 µmol/min/mg.

In the case of `[Ba+2]` [Ba^2+], the “Amidase activity in %” value in series [3] amounted to 87%.

Turning to `[Ca+2]` [Ca^2+], in series [3], the “Amidase activity in %” value was determined as 85%.

As for `[Co+2]` [Co^2+], the “Amidase activity in %” value in series [3] is listed as 0%.

For `[Cu+2]` [Cu^2+], the “Amidase activity in %” value in series [3] is given as 26%.

For `O[C@@H](CS)[C@@H](O)CS` [DTT], in series [3], the “sensitivity of the amidases to the reagent (in words)” value (“sensitivity of the amidases” below) is reported as “increased” and the “Amidase activity in %” value worked out at 120%.

In the case of `O=C(O)CN(CCN(CC(=O)O)CC(=O)O)CC(=O)O` [EDTA], in series [3], the “sensitivity of the amidases” value is reported as “insensitive” and the “Amidase activity in %” value is 100%.

In the case of `C[C@H](N)C(N)=O` [L-alaninamide], the Specific activity in series [1] (setting [8]) worked out at 10.5 µmol/min/mg.

As to `CC(C)C[C@H](N)C(N)=O` [L-leucinamide], in series [1] (setting [8]), the Specific activity came out at 10.8 µmol/min/mg.

In turn, `CSCC[C@H](N)C(N)=O` [L-methioninamide] gave a Specific activity in series [1] (setting [8]) of 14.4 µmol/min/mg.

Molecule `NC(=O)[C@@H]1CCCN1` [L-prolinamide] displayed a Specific activity in series [1] (setting [8]) of 13.0 µmol/min/mg.

In series [1] (setting [8]), `CC(C)(C)[C@H](N)C(N)=O` [L-tert-leucinamide] gave a Specific activity of 0.08 µmol/min/mg.

On to `NC(=O)[C@@H](N)Cc1c[nH]c2ccccc12` [L-tryptophanamide], for which the Specific activity in series [1] (setting [8]) was 10.3 µmol/min/mg.

Consider `CC(C)[C@H](N)C(N)=O` [L-valinamide], for which the Specific activity in series [1] (setting [8]) worked out at 13.0 µmol/min/mg.

As to `[Mg+2]` [Mg^2+], the “Amidase activity in %” value in series [3] is 90%.

As for `[Mn+2]` [Mn^2+], the “Amidase activity in %” value in series [3] stood at 98%.

For the molecule `[Ni+2]` [Ni^2+], the “Amidase activity in %” value in series [3] was found to be 42%.

`CCCCCCCCCCCCOS(=O)(=O)[O-].[Na+]` [SDS]: in series [3], the “sensitivity of the amidases” value was “insensitive” and the “Amidase activity in %” value is given as 100%.

On to `[Zn+2]` [Zn^2+], for which the “Amidase activity in %” value in series [3] is 93%.

Take `CC(N)=O` [acetamide]: the Specific activity in series [1] (setting [7]) came to 15.7 µmol/min/mg.

In series [1] (setting [7]), `NC(=O)CCCCC(N)=O` [adipamide] displayed a Specific activity of 12.0 µmol/min/mg.

With `NC(=O)c1ccccc1` [benzamide], in series [1] (Aromatic amides, 1 h at 70° C.), the Specific activity turned out to be 19.4 µmol/min/mg.

In series [1] (setting [7]), `NC=O` [formamide] registered a Specific activity of 9.2 µmol/min/mg.

For the molecule `CCCCCC(N)=O` [hexanoamide], the Specific activity in series [1] (setting [7]) turned out to be 9.3 µmol/min/mg.

In the case of `NC(=O)CI` [iodoacetamide], in series [3], the “Amidase activity in %” value is recorded as 90%.

On to `O=C(O)CI` [iodoacetate], for which the “Amidase activity in %” value in series [3] was 22%.

`CC(C)C(N)=O` [isobutyramide] had a Specific activity in series [1] (setting [7]) of 13.5 µmol/min/mg.

`NC(=O)c1ccncc1` [isonicotinamide]: the Specific activity in series [1] (setting [9]) amounted to 7.1 µmol/min/mg.

`NC(=O)CC(N)=O` [malonamide] showed a Specific activity in series [1] (setting [7]) of 7.4 µmol/min/mg.

With `C=C(C)C(N)=O` [methacrylamide], the Specific activity in series [1] (setting [7]) was determined as 23.5 µmol/min/mg.

With `NC(=O)c1cccnc1` [nicotinamide], the Specific activity in series [1] (setting [9]) was found to be 11.6 µmol/min/mg.

Turning to `NC(=O)c1ccccc1O` [o-hydroxybenzamide], the Specific activity in series [1] (Aromatic amides, 1 h at 70° C.) worked out at 7.4 µmol/min/mg.

Consider `CC(C)(C)C(N)=O` [pivalamide], for which, in series [1] (setting [7]), the Specific activity was found to be 14.9 µmol/min/mg.

`CCC(N)=O` [propionamide]: the Specific activity in series [1] (setting [7]) was 25.4 µmol/min/mg.

`NC(=O)c1cnccn1` [pyrazinamide]: the Specific activity in series [1] (setting [9]) came out at 11.2 µmol/min/mg.

Take `NC(=O)CCC(N)=O` [succinamide]: the Specific activity in series [1] (setting [7]) was determined as 4.0 µmol/min/mg.

In series [1] (setting [7]), `NC(N)=O` [urea] returned a Specific activity of 17.5 µmol/min/mg.

As for Triton X-100, in series [3], the “sensitivity of the amidases” value is recorded as “insensitive” and the “Amidase activity in %” value was 100%.

As for m-tolylamide, in series [1], the Specific activity turned out to be 12.7 µmol/min/mg.

In the case of p-tolylamide, the Specific activity in series [1] (Aromatic amides, 1 h at 70° C.) turned out to be 13.1 µmol/min/mg.

B1: amidase: thermally stable amidase purified from Pseudonocardia thermophila (DSMZ 43832); SEQ ID No. 1, 2, 3 (protein, listed as Pseudonocardia thermophila)
chain 1: IHMPDPDAV
chain 2: DGLPVGLMIVGKHF
chain 3: MIHMPDPDAVARMAAEGRFGIPVVVICRTYHDLGHRPARLVEQGRRAVRGGGPHPAAALVDPPRRRGRQARRVGGADLDHRNLGGAARRPHGRGQDNVAVAGVPMMNGSRTLEGFVPAEDATVVSRLLAAGATIAGKSVCEDLCFSGGSHTSKPGTVHNPWDMSRSAGGSSSGSGALVAAGEVDMAIGGDQGGSIRIPSAYCGTVGHKPTHGLVPYTGGFPIEQSIDHLGPITRTVADAALMLSVIAGRDGLDPRQPDVVEVQDYVGALAESVSGLRIGVLQEGFGHPNSEPEVDDTVRAAVGTLREAGFTVEDVSVPWHLHATAIWDVLATEGGLWQMVEGNAYGMHWKGHYDPSLIAYYGRKWREDPAQFSETVKLVALAGRYALTTQYGRHYAMARNLAPKLVAAYDAALSNYDVLVMPTLPMRATVLPGPDAPVEEILARGLEMLANTAPFDVTGHPACSVPAGLADGLPVGLMIVGKHFDDATVLKVANAFEQAVGGFPTPAAZ
On to B1, for which the “enzymatic activity over time (thermal stability)” value in series [4] was “decreases rapidly”. Further, in series [1] (Table 4, inventive amidase), the “Substrate specificity (amides)” value was “Al, Ar, Cy, As”. In series [5], the Specific activity is recorded as 19.5 U/mg of protein. The isoelectric point in series [6] (Novex polyacrylamide gel) turned out to be 4.2 pH. For the same molecule, the “IEF point pH” value in series [6] (Table 4, inventive amidase) is 4.2 pH.
